Common to all, as to assay: Glasshouse assay for herbicidal activity (pre- and post-emergence), percentage phytotoxicity
What all share (format): in vivo

Test [1] deals with Alopecurus myosuroides (ALOMY). The note with it: Alopecurus myosuroides. The procedure: (§1) Test—Glasshouse Assay for Herbicidal Activity
(§2) Seeds of a variety of monocotyledonous and dicotyledonous test plants are sown in standard soil in pots. The plants are cultivated for one day (for pre-emergence (PRE)) or for about 12 days (for post-emergence (POST)) under controlled conditions in a glasshouse (warm climate species at 24/18° C., cool climate species at 20/16° C., both at day/night; 16 hours light; 65% humidity).
(§3) The test plants are then grown on, in a glasshouse (greenhouse) under controlled conditions (warm climate species at 24/18° C., cool climate species at 20/16° C., both at day/night; 16 hours light; 65% humidity) and are watered twice daily. 15 days after application of the test herbicide (15 DAA) (for post-emergence), and 20 days after application of the test herbicide (20 DAA) (for pre-emergence), the test plants are evaluated visually, and an assessed percentage phytotoxicity score is given for each herbicidal application on each plant species (with 100%=total damage to plant; 0%=no damage to plant).
(§4) The plant species tested are as follows: Alopecurus myosuroides (ALOMY), Avena fatua (AVEFA), Lolium perenne (LOLPE), Echinochloa crus-galli (ECHCG).

For test [2], the system named is Echinochloa crus-galli (ECHCG). As to conditions: Echinochloa crus-galli. How it is done:
as §1, §2, §3, §4

The next test concerns Avena fatua (AVEFA). The note with it: Avena fatua. The procedure: as §1, §2, §3, §4
The next test has as its system Lolium perenne (LOLPE). The note with it: Lolium perenne. The procedure:
as §1, §2, §3, §4

Setting [3] is: post-emergence, 360 h, 250 g/ha, post-emergence, 15 DAA, visual assessment (100%=total damage, 0%=no damage), read-out: Post-emergence herbicidal activity (percentage phytotoxicity) ALOMY POST.
[4] abbreviates: pre-emergence, 480 h, 250 g/ha, pre-emergence, 20 DAA, visual assessment (100%=total damage, 0%=no damage), read-out: Pre-emergence herbicidal activity (percentage phytotoxicity) ALOMY PRE.
Where [5] appears, read: post-emergence, 360 h, 250 g/ha, post-emergence, 15 DAA, visual assessment (100%=total damage, 0%=no damage), read-out: Post-emergence herbicidal activity (percentage phytotoxicity) ECHCG POST.
Where [6] appears, read: pre-emergence, 480 h, 250 g/ha, pre-emergence, 20 DAA, visual assessment (100%=total damage, 0%=no damage), read-out: Pre-emergence herbicidal activity (percentage phytotoxicity) ECHCG PRE.
Setting [7] is: post-emergence, 360 h, 250 g/ha, post-emergence, 15 DAA, visual assessment (100%=total damage, 0%=no damage), read-out: Post-emergence herbicidal activity (percentage phytotoxicity) AVEFA POST.
Setting [8] is: pre-emergence, 480 h, 250 g/ha, pre-emergence, 20 DAA, visual assessment (100%=total damage, 0%=no damage), read-out: Pre-emergence herbicidal activity (percentage phytotoxicity) AVEFA PRE.
Where [9] appears, read: post-emergence, 360 h, 250 g/ha, post-emergence, 15 DAA, visual assessment (100%=total damage, 0%=no damage), read-out: Post-emergence herbicidal activity (percentage phytotoxicity) LOLPE POST.
Setting [10] is: pre-emergence, 480 h, 250 g/ha, pre-emergence, 20 DAA, visual assessment (100%=total damage, 0%=no damage), read-out: Pre-emergence herbicidal activity (percentage phytotoxicity) LOLPE PRE.
Where [11] appears, read: post-emergence, 360 h, POST-emergence, rate 250 g/ha, visual score 15 DAA (100%=total damage, 0%=no damage), read-out: Post-emergence herbicidal activity (percentage phytotoxicity) ALOMY POST.
Where [12] appears, read: pre-emergence, 480 h, PRE-emergence, rate 250 g/ha, visual score 20 DAA (100%=total damage, 0%=no damage), read-out: Pre-emergence herbicidal activity (percentage phytotoxicity) ALOMY PRE.
Where [13] appears, read: post-emergence, 360 h, POST-emergence, rate 250 g/ha, visual score 15 DAA (100%=total damage, 0%=no damage), read-out: Post-emergence herbicidal activity (percentage phytotoxicity) ECHCG POST.
Setting [14] is: pre-emergence, 480 h, PRE-emergence, rate 250 g/ha, visual score 20 DAA (100%=total damage, 0%=no damage), read-out: Pre-emergence herbicidal activity (percentage phytotoxicity) ECHCG PRE.
Setting [15] is: post-emergence, 360 h, POST-emergence, rate 250 g/ha, visual score 15 DAA (100%=total damage, 0%=no damage), read-out: Post-emergence herbicidal activity (percentage phytotoxicity) AVEFA POST.
Setting [16] is: pre-emergence, 480 h, PRE-emergence, rate 250 g/ha, visual score 20 DAA (100%=total damage, 0%=no damage), read-out: Pre-emergence herbicidal activity (percentage phytotoxicity) AVEFA PRE.
Setting [17] is: post-emergence, 360 h, POST-emergence, rate 250 g/ha, visual score 15 DAA (100%=total damage, 0%=no damage), read-out: Post-emergence herbicidal activity (percentage phytotoxicity) LOLPE POST.
Setting [18] is: pre-emergence, 480 h, PRE-emergence, rate 250 g/ha, visual score 20 DAA (100%=total damage, 0%=no damage), read-out: Pre-emergence herbicidal activity (percentage phytotoxicity) LOLPE PRE.
[19] abbreviates: post-emergence, 360 h, Rate 250 g/ha, post-emergence, assessed visually 15 DAA, 100%=total damage, 0%=no damage, read-out: Post-emergence herbicidal activity (percentage phytotoxicity) ALOMY POST.
Setting [20] is: pre-emergence, 480 h, Rate 250 g/ha, pre-emergence, assessed visually 20 DAA, 100%=total damage, 0%=no damage, read-out: Pre-emergence herbicidal activity (percentage phytotoxicity) ALOMY PRE.
Setting [21] is: post-emergence, 360 h, Rate 250 g/ha, post-emergence, assessed visually 15 DAA, 100%=total damage, 0%=no damage, read-out: Post-emergence herbicidal activity (percentage phytotoxicity) ECHCG POST.
[22] abbreviates: pre-emergence, 480 h, Rate 250 g/ha, pre-emergence, assessed visually 20 DAA, 100%=total damage, 0%=no damage, read-out: Pre-emergence herbicidal activity (percentage phytotoxicity) ECHCG PRE.
Where [23] appears, read: post-emergence, 360 h, Rate 250 g/ha, post-emergence, assessed visually 15 DAA, 100%=total damage, 0%=no damage, read-out: Post-emergence herbicidal activity (percentage phytotoxicity) AVEFA POST.
Where [24] appears, read: pre-emergence, 480 h, Rate 250 g/ha, pre-emergence, assessed visually 20 DAA, 100%=total damage, 0%=no damage, read-out: Pre-emergence herbicidal activity (percentage phytotoxicity) AVEFA PRE.
[25] abbreviates: post-emergence, 360 h, Rate 250 g/ha, post-emergence, assessed visually 15 DAA, 100%=total damage, 0%=no damage, read-out: Post-emergence herbicidal activity (percentage phytotoxicity) LOLPE POST.
Setting [26] is: pre-emergence, 480 h, Rate 250 g/ha, pre-emergence, assessed visually 20 DAA, 100%=total damage, 0%=no damage, read-out: Pre-emergence herbicidal activity (percentage phytotoxicity) LOLPE PRE.

The text below walks through data of patent publication US10206394B2, “Herbicidal compounds” (Syngenta Participations AG, priority 2014, dated 2019).

Structures are written as SMILES. Read-outs that look alike come from different tables or passages of the source.

With `Cc1cc(C)c(C2C(=O)CC(CC(=O)NCC3CC3C(F)F)C2=O)c(C)c1` (stereo not shown) [Compound B60], the pest or weed control at 250 g/ha in test [1] (setting [3]) turned out to be 80%; in test [1] (setting [4]), 90%; in test [2] (setting [5]), 90%; in test [2] (setting [6]) it was 90%; with Avena fatua (AVEFA) (setting [7]), 80%; with Avena fatua (AVEFA) (setting [8]), 60%. Moreover, the pest or weed control at 250 g/ha with Lolium perenne (LOLPE) (setting [9]) and in the test with Lolium perenne (LOLPE) (setting [10]) was 80% each time.

As to `C=CCNC(=O)CC1CC(=O)C(c2c(C)cc(-n3cc(Cl)cn3)cc2CC)C1=O` (stereo not shown) [Compound B236], the pest or weed control at 250 g/ha is 100% in test [1] (setting [11]); 90% in test [1] (setting [12]); 100% in test [2] (setting [13]); 90% in test [2] (setting [14]); 100% with Avena fatua (AVEFA) (setting [15]); 90% in the test on Avena fatua (AVEFA) (setting [16]). For the same compound, the pest or weed control at 250 g/ha in the test with Lolium perenne (LOLPE) (setting [17]) was 100%; in the test with Lolium perenne (LOLPE) (setting [18]), 90%.

In the case of `C/C=C/c1cc(C)c(C2C(=O)CC(CC(=O)NCc3ccc(C#N)cc3)C2=O)c(CC)c1` (stereo not shown) [Compound B191], the pest or weed control at 250 g/ha in test [1] (setting [11]) worked out at 50%; in test [1] (setting [12]), 60%; in test [2] (setting [13]), 100%; in test [2] (setting [14]), 80%; with Avena fatua (AVEFA) (setting [15]), 90%; in the test with Avena fatua (AVEFA) (setting [16]), 40%. The pest or weed control at 250 g/ha stood at 90% in the test with Lolium perenne (LOLPE) (setting [17]) and 70% in the test with Lolium perenne (LOLPE) (setting [18]).

Regarding `Cc1cc(C)c(C2C(=O)CC(CC(=O)NCc3cccc(Br)c3)C2=O)c(C)c1` (stereo not shown) [Compound B23], the pest or weed control at 250 g/ha in test [1] (setting [3]) was determined as 60%; in test [1] (setting [4]), 70%; in test [2] (setting [5]), 90%; in test [2] (setting [6]), 90%; with Avena fatua (AVEFA) (setting [7]), 70%; with Avena fatua (AVEFA) (setting [8]) it was 60%. Also, the pest or weed control at 250 g/ha in the test with Lolium perenne (LOLPE) (setting [9]) came to 90%; in the test on Lolium perenne (LOLPE) (setting [10]), 100%.

Turning to `COc1cccc(CNC(=O)CC2CC(=O)C(c3c(C)cc(Br)cc3C)C2=O)c1` (stereo not shown) [Compound B132], the pest or weed control at 250 g/ha in test [1] (setting [3]) came out at 60%; in test [1] (setting [4]), 80%; in test [2] (setting [5]) it was 80%; in test [2] (setting [6]), 20%; with Avena fatua (AVEFA) (setting [7]), 20%; in the test with Avena fatua (AVEFA) (setting [8]) it was 30%. In addition, the pest or weed control at 250 g/ha was 70% in the test with Lolium perenne (LOLPE) (setting [9]) and 80% in the test on Lolium perenne (LOLPE) (setting [10]).

Turning to `Cc1cc(-c2ccc(F)cn2)cc(C)c1C1C(=O)CC(CC(=O)NCc2cccc(Br)c2)C1=O` (stereo not shown) [Compound B384], the pest or weed control at 250 g/ha amounted to 90% in test [1] (post-emergence, 360 h, Rate 250 g/ha, post-emergence, visual assessment 15 DAA, 100%=total damage, 0%=no damage, read-out: Post-emergence herbicidal activity (percentage phytotoxicity) ALOMY POST); 80% in test [1] (pre-emergence, 480 h, Rate 250 g/ha, pre-emergence, visual assessment 20 DAA, 100%=total damage, 0%=no damage, read-out: Pre-emergence herbicidal activity (percentage phytotoxicity) ALOMY PRE); 40% in test [2] (post-emergence, 360 h, Rate 250 g/ha, post-emergence, visual assessment 15 DAA, 100%=total damage, 0%=no damage, read-out: Post-emergence herbicidal activity (percentage phytotoxicity) ECHCG POST); 90% in test [2] (pre-emergence, 480 h, Rate 250 g/ha, pre-emergence, visual assessment 20 DAA, 100%=total damage, 0%=no damage, read-out: Pre-emergence herbicidal activity (percentage phytotoxicity) ECHCG PRE); 100% in the test with Avena fatua (AVEFA) (post-emergence, 360 h, Rate 250 g/ha, post-emergence, visual assessment 15 DAA, 100%=total damage, 0%=no damage, read-out: Post-emergence herbicidal activity (percentage phytotoxicity) AVEFA POST); 80% with Avena fatua (AVEFA) (pre-emergence, 480 h, Rate 250 g/ha, pre-emergence, visual assessment 20 DAA, 100%=total damage, 0%=no damage, read-out: Pre-emergence herbicidal activity (percentage phytotoxicity) AVEFA PRE). Besides, the pest or weed control at 250 g/ha in the test with Lolium perenne (LOLPE) (post-emergence, 360 h, Rate 250 g/ha, post-emergence, visual assessment 15 DAA, 100%=total damage, 0%=no damage, read-out: Post-emergence herbicidal activity (percentage phytotoxicity) LOLPE POST) was found to be 90%; in the test with Lolium perenne (LOLPE) (pre-emergence, 480 h, Rate 250 g/ha, pre-emergence, visual assessment 20 DAA, 100%=total damage, 0%=no damage, read-out: Pre-emergence herbicidal activity (percentage phytotoxicity) LOLPE PRE), 80%.

With `CC#Cc1cc(C)c(C2C(=O)CC(CC(=O)NC(C)C)C2=O)c(CC)c1` (stereo not shown) [Compound A54], the pest or weed control at 250 g/ha (in test [1] (setting [19]); in test [1] (setting [20]); in test [2] (setting [21]); in test [2] (setting [22]); with Avena fatua (AVEFA) (setting [23]); in the test with Avena fatua (AVEFA) (setting [24])) was 100% in each case. For the same compound, the pest or weed control at 250 g/ha in the test with Lolium perenne (LOLPE) (setting [25]) and in the test on Lolium perenne (LOLPE) (setting [26]) was 100% throughout.

Turning to `Cc1cnc(CNC(=O)CC2CC(=O)C(c3c(C)cc(-c4ncc(F)cn4)cc3C)C2=O)cn1` (stereo not shown) [Compound A157], the pest or weed control at 250 g/ha came to 80% in test [1] (setting [19]); 60% in test [1] (setting [20]); 100% in test [2] (setting [21]); 90% in test [2] (setting [22]); 90% in the test on Avena fatua (AVEFA) (setting [23]); 70% with Avena fatua (AVEFA) (setting [24]). The results for the pest or weed control at 250 g/ha in the test with Lolium perenne (LOLPE) (setting [25]) and with Lolium perenne (LOLPE) (setting [26]) were 90% and 70%, respectively.
